Earlier results on two compounds are cited in patent US20220259114A1, “Microbe-Based Compositions for Restoring Soil Health and Controlling Pests” (Locus Agriculture IP Company, LLC, priority 2019, published 2022).

The conditions of data set [1]: reduced from 72 mN/m; concentration as low as 0.005%.
The test system of data set [2] is plant pathogens including bacteria, fungi, viruses and nematodes. As to conditions: in most cases does not exceed.
For data set [3] the following is noted: stated 'in one embodiment'; species and route not given.

*1 amine or outer side, *2 acyl side, *3 side chain or, on linkers, in order; H or OH if unused. Where a SMILES comes first, the peptide text is derived from it. Bridges are numbered along the chain shown (N, C = ends). [ ]: non-standard residue; d: D form. X1 = CC(C)CCCCCCCCC[C@H](CC(=O)[*:1])O[*:2] Some results are limits rather than exact numbers.

Consider `CC(C)CCCCCCCCC[C@@H]1CC(=O)N[C@@H](CCC(=O)O)C(=O)N[C@@H](CC(C)C)C(=O)N[C@H](CC(C)C)C(=O)N[C@@H](C(C)C)C(=O)N[C@@H](CC(=O)O)C(=O)N[C@H](CC(C)C)C(=O)N[C@@H](CC(C)C)C(=O)O1` [Surfactin, surfactin] (EL[dL]VD[dL]L; linker N-C via X1), for which the “surface tension of water after reduction” value in data set [1] is listed as 27 mN/m. On to sophorolipid [SLP], for which the “effective SLP concentration for biopesticide activity, in most cases” value in data set [2] is listed as no more than 3 mg/L. The toxic dose in data set [3] is on record as > 375 mg/kg of body weight.
